Source: patent US11040028B2, “Penicinotam derivative, preparation method and use thereof” (OCEAN UNIVERSITY OF CHINA, priority 2017, dated 2021)

Tests used:
[1] = pirfenidone, stated as known property; cited from earlier work
[2] = system: BHK-21 cells; experiment: Anti-fibrosis activity test: inhibition of BHK-21 cell proliferation (CCK-8); format: cell-based; details: Mesocricetus auratus, BHK-21, 48 h
Summary of the method: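 Each concentration was tested in triplicate on adhered BHK-21 cells for 48 h, with pirfenidone as reference. A 2 h CCK-8 incubation preceded absorbance reading at 450 nm, and IC50 was obtained from percent inhibition versus blank.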

[3] = system: human dermal fibroblasts CCC-ESF-1; experiment: Anti-fibrosis activity test: inhibition of proliferation of human dermal fibroblasts CCC-ESF-1 (CCK-8); format: cell-based; details: Fibroblast
Summary of the method: (§1)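 Read-out: absorbance at 450 nm after 2 h with CCK-8, following 48 h of compound exposure of adhered cells (2×10^4 cells/mL, 24 h attachment, 37° C, 5% CO2). Proliferation inhibition was taken relative to the blank control, and IC50 values were calculated from it.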

[4] = system: human hepatic stellate cells LX-2; experiment: Anti-fibrosis activity test: inhibition of proliferation of human hepatic stellate cells LX-2 (CCK-8); format: cell-based; details: Homo sapiens, 48 h
Summary of the method: as §1

[5] = system: human fibrosarcoma cells HT-1080; experiment: Anti-fibrosis activity test: inhibition of proliferation of human fibrosarcoma cells HT-1080 (CCK-8); format: cell-based; details: Homo sapiens, HT-1080, 48 h
Summary of the method: as §1

[6] = system: human embryonic lung fibroblast IMR-90; experiment: Anti-fibrosis activity test: inhibition of proliferation of human embryonic lung fibroblast IMR-90 (CCK-8); format: cell-based
Summary of the method: as §1

[7] = system: human lung fibroblasts HFL1; experiment: Anti-fibrosis activity test: inhibition of proliferation of human lung fibroblasts HFL1 (CCK-8); format: cell-based; details: Homo sapiens, HFL1, 48 h
Summary of the method: as §1

[8] = system: cardiac fibroblast RAT-iCell-C002; experiment: Anti-fibrosis activity test: inhibition of proliferation of cardiac fibroblast RAT-iCell-C002 (CCK-8); format: cell-based; details: Cardiac fibroblast, 48 h
Summary of the method: as §1

[9] = system: mouse macrophages (RAW264.7); experiment: Lipopolysaccharide-induced NO secretion in macrophages (Griess); format: cell-based; details: Mus musculus, RAW264.7, 24 h, RAW264.7, LPS 1 μg/ml, a/b isomers given as first/second symbol, read-out: IC50 (μM), inhibition of lipopolysaccharide-induced NO secretion in macrophages
Summary of the method: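 Absorbance at 548 nm after Griess reagent addition to culture supernatant gave NO content; inhibition rate was derived relative to blank control. Cells were mouse RAW264.7 macrophages exposed to compounds and 1 μg/ml LPS for 24 hours.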

[10] = system: NF-κB; experiment: Immunological activity test: inhibition of NF-κB activity; format: cell-based; details: initial concentration of 30 μM; a/b isomers given as first/second symbol; read-out: IC50 (μM), inhibitory activity against NF-κB
Summary of the method: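 NF-κB inhibition was tested at an initial 30 μM compound concentration, with parthenolide as positive control, and IC50 values were determined from follow-up analysis.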

[11] = CCK-8, 48 hours after administration
[12] = human dermal fibroblasts CCC-ESF-1, CCK-8, 48 hours
[13] = human hepatic stellate cells LX-2, CCK-8, 48 hours
[14] = human fibrosarcoma cells HT-1080, CCK-8, 48 hours
[15] = human embryonic lung fibroblast IMR-90, CCK-8, 48 hours
[16] = human lung fibroblasts HFL1, CCK-8, 48 hours
[17] = cardiac fibroblast RAT-iCell-C002, CCK-8, 48 hours

SMILES | phototoxic reactions [1] | IC50 [2, 11] | IC50 [3, 12] | IC50 [4, 13] | IC50 [5, 14] | IC50 [6, 15] | IC50 [7, 16] | IC50 [8, 17] | IC50 [9] | IC50 [10] | IC50 ([2]; 48 h, CCK-8) | IC50 ([3]; Homo sapiens, CCC-ESF-1 cells, 48 h, CCK-8) | IC50 ([4]; LX-2, 48 h, LX-2 cells, CCK-8) | IC50 ([5]; HT-1080 cells, 48 h, CCK-8) | IC50 ([6]; Homo sapiens, IMR-90 cells, 48 h, CCK-8) | IC50 ([7]; HFL1 cells, 48 h, CCK-8) | IC50 ([8]; RAT-iCell-C002 cells, CCK-8)
Cc1ccc(=O)n(-c2ccccc2)c1 [pirfenidone, reference compound] | phototxic reactions, which are produced by pirfenidone | 20 to 100 mM | 20 to 100 mM | 20 to 100 mM | 20 to 100 mM | 20 to 100 mM | 5 to 20 mM | 20 to 100 mM | – | – | – | – | – | – | – | – | –
O=C1c2c(nc3ccccc3c2OCc2ccc(Br)cc2F)-c2cccn21 [Compound 606b, 9-((4-bromo-2-fluorobenzyl)oxy)-10H-pyrrolizino[1,2-b]quinolin-10-one] | – | 0.05 to 5 mM | 0.05 to 5 mM | 0.05 to 5 mM | 0.05 to 5 mM | 0.05 to 5 mM | 0.05 to 5 mM | 0.05 to 5 mM | 1 to 10 µM | 1 to 10 µM | – | – | – | – | – | – | –
O=C1c2c([nH]c3cc(OC(F)(F)F)ccc3c2=O)-c2cccn21 [Compound 548a, 6-(Trifluoromethoxy)-9H-pyrrolizino[1,2-b]quinoline-9,10(4H)-dione] | – | 0.05 to 5 mM | 0.05 to 5 mM | < 0.05 mM | 0.05 to 5 mM | 0.05 to 5 mM | 0.05 to 5 mM | 0.05 to 5 mM | 10 to 50 µM | 0.1 to 1 µM | – | – | – | – | – | – | –
N#Cc1ccc(F)cc1COc1c2c(nc3ccccc13)-c1cccn1C2=O [Compound 616b, 4-fluoro-2-(((10-oxo-10H-pyrrolizino[1,2-b]quinolin-9-yl)oxy)methyl)benzonitrile] | – | 0.05 to 5 mM | 0.05 to 5 mM | 0.05 to 5 mM | 0.05 to 5 mM | 0.05 to 5 mM | 0.05 to 5 mM | 0.05 to 5 mM | 1 to 10 µM | 10 to 50 µM | – | – | – | – | – | – | –
O=C1c2c([nH]c3c(Cl)cccc3c2=O)-c2cccn21 [Compound 443a, 5-Chloro-9H-pyrrolizino[1,2-b]quinoline-9,10(4H)-dione] | – | 0.05 to 5 mM | 0.05 to 5 mM | 0.05 to 5 mM | 0.05 to 5 mM | 0.05 to 5 mM | 0.05 to 5 mM | 0.05 to 5 mM | 1 to 10 µM | 1 to 10 µM | – | – | – | – | – | – | –
O=C1c2c(nc3cc(N4CCNCC4)ccc3c2O)-c2cccn21 [Compound 319b, 9-Hydroxy-6-(piperazin-1-yl)-10H-pyrrolizino[1,2-b]quinolin-10-one] | – | 0.05 to 5 mM | < 0.05 mM | 0.05 to 5 mM | 0.05 to 5 mM | 0.05 to 5 mM | 0.05 to 5 mM | 0.05 to 5 mM | 1 to 10 µM | 1 to 10 µM | – | – | – | – | – | – | –
O=C1c2c(nc3ccccc3c2OCc2cc(C(F)(F)F)cc(C(F)(F)F)c2)-c2cccn21 [Compound 607b, 9-((3,5-bis(trifluoromethyl)benzyl)oxy)-10H-pyrrolizino[1,2-b]quinolin-10-one] | – | 0.05 to 5 mM | 0.05 to 5 mM | 0.05 to 5 mM | 0.05 to 5 mM | 0.05 to 5 mM | 0.05 to 5 mM | 0.05 to 5 mM | 1 to 10 µM | 1 to 10 µM | – | – | – | – | – | – | –
C=CCOc1c2c(nc3ccccc13)-c1cccn1C2=O [Compound 6b, 9-(allyloxy)-10H-pyrrolizino[1,2-b]quinolin-10-one] | – | 0.05 to 5 mM | 5 to 20 mM | 0.05 to 5 mM | 0.05 to 5 mM | 0.05 to 5 mM | 0.05 to 5 mM | 0.05 to 5 mM | 1 to 10 µM | 1 to 10 µM | – | – | – | – | – | – | –
O=C1c2c(n(CCN3CCOCC3)c3ccccc3c2=O)-c2cccn21 [Compound 662a, 4-(2-Morpholinoethyl)-9H-pyrrolizino[1,2-b]quinoline-9,10(4H)-dione] | – | 0.05 to 5 mM | 0.05 to 5 mM | 0.05 to 5 mM | 0.05 to 5 mM | 0.05 to 5 mM | 0.05 to 5 mM | 0.05 to 5 mM | 1 to 10 µM | 0.1 to 1 µM | – | – | – | – | – | – | –
O=C(COc1c2c(nc3ccccc13)-c1cccn1C2=O)c1ccc(-c2ccccc2)cc1 [Compound 50b, 9-(2-([1,1′-biphenyl]-4-yl)-2-oxoethoxy)-10H-pyrrolizino[1,2-b]quinolin-10-one] | – | 0.05 to 5 mM | < 0.05 mM | 5 to 20 mM | 0.05 to 5 mM | 5 to 20 mM | 0.05 to 5 mM | 5 to 20 mM | 1 to 10 µM | 1 to 10 µM | – | – | – | – | – | – | –
O=C1c2c(nc3ccccc3c2OCc2ccc(Cl)c(Cl)c2)-c2cccn21 [Compound 613b, 9-((3,4-dichlorobenzyl)oxy)-10H-pyrrolizino[1,2-b]quinolin-10-one] | – | 0.05 to 5 mM | 0.05 to 5 mM | 0.05 to 5 mM | 0.05 to 5 mM | 0.05 to 5 mM | 0.05 to 5 mM | 0.05 to 5 mM | 10 to 50 µM | 1 to 10 µM | – | – | – | – | – | – | –
O=C1c2c(n(CCCN3CCNCC3)c3ccccc3c2=O)-c2cccn21 [Compound 669a, 4-(3-(Piperazin-1-yl)propyl)-9H-pyrrolizino[1,2-b]quinoline-9,10(4H)-dione] | – | – | – | – | – | – | – | – | 1 to 10 µM | 0.1 to 1 µM | 0.05 to 5 mM | 0.05 to 5 mM | 0.05 to 5 mM | 0.05 to 5 mM | 0.05 to 5 mM | 0.05 to 5 mM | 0.05 to 5 mM
O=C1c2c(nc3ccccc3c2OCc2ccc(F)cc2)-c2cccn21 [Compound 588b, 9-((4-fluorobenzyl)oxy)-10H-pyrrolizino[1,2-b]quinolin-10-one] | – | 0.05 to 5 mM | 0.05 to 5 mM | 0.05 to 5 mM | 0.05 to 5 mM | 0.05 to 5 mM | 0.05 to 5 mM | 0.05 to 5 mM | 1 to 10 µM | 1 to 10 µM | – | – | – | – | – | – | –
O=C(Cn1c2c(c(=O)c3ccccc31)C(=O)n1cccc1-2)c1ccc(Cl)cc1 [Compound 90a, 4-(2-(4-Chlorophenyl)-2-oxoethyl)-9H-pyrrolizino[1,2-b]quinoline-9,10(4H)-dione] | – | 0.05 to 5 mM | 0.05 to 5 mM | < 0.05 mM | 0.05 to 5 mM | 0.05 to 5 mM | 0.05 to 5 mM | 0.05 to 5 mM | 0.1 to 1 µM | 1 to 10 µM | – | – | – | – | – | – | –
